Legend:
human lenses = assay: AcK-bearing proteins in WS cortical and nuclear fractions of treated human lenses (Western blot); details: 1 mM, 72 h, vs untreated controls
Procedure: For Western blotting, 10-20 μg of protein from each lens sample was used and each sample was separately processed three times and analyzed.

β-crystallin (βC) = assay: Crystallin levels in solubilized human lens proteins (Western blot), βC; format: biochemical; details: 500 μM, solubilized proteins of three human lenses
Procedure: The contents of crystalline proteins [αA-crystallin (αAC), αB-crystallin (αBC), β-crystallin (βC), and γ-crystallin (γC)] in the solubilized proteins of three human lenses treated with either Aggrelyte-2 or Aggrelyte-2C (500 μM) from Example 4 were determined by Western blot analysis as described for Example 5. Membranes were incubated with antibodies against αAC (1:14,000 dilution; Enzo Life Sciences, Catalog #ADI-SPA-221D), αBC (1:700,000 dilution; University of Iowa), βC (1:14,000 dilution; Santa Cruz Biotechnology, Catalog #sc-22745), and γC (1:7,000 dilution; Santa Cruz Biotechnology, Catalog #sc-22746). The secondary antibodies were HRP-conjugated anti-mouse IgG for αBC and HRP-conjugated […] (Cell Signaling Technology, Catalog #7074S) for αAC, βC, and γC. According to the supplier, the […] detects mostly βB1-crystallin and, to a lesser extent, βA1/3, βA2, βA4, βB2, and βB3-crystallin. The γC antibody reacts with γA, γB, γC, γD, γE, and γF-crystallin.

[1] = system: acetyllysine (AcK)-bearing proteins in solubilized human lens WI proteins; assay: AcK-bearing proteins in solubilized human lens proteins (Western blot densitometry); format: biochemical; details: 500 μM, solubilized proteins of ten human lenses (65 to 75 years), vs Control
Description: Chemiluminescence was detected using an Enhanced Chemiluminescence Detection Kit (Thermo Scientific). Then the membrane was stained with Ponceau-S to visualize the proteins and normalize the detected AcK-bearing protein to the total protein load via densitometry.

mouse lenses = assay: Stiffness and axial strain of ex vivo mouse lenses (Example 10); set-up: species or system mouse (C57BL/6J); details: 1 mM, 24 hours, 100 mg load
Procedure: In this example, the lenses were dissected from the eyes of mice (C57BL/6J, 5-8 months old, Jackson Laboratories, Stock No. 000664, n=4-5) by a posterior approach and incubated without (“Control”) or with Aggrelyte-2 or Aggrelyte-2C (1 mM) for 24 hours in serum-free and phenol-red-free MEM (297 mOsm) at 37° C. Lens stiffness was measured as previously described in Baradia, H. et al., (2010) Exp. Eye Res. 91, 300-307. Briefly, the lens was placed on a flat platform with the anterior side facing up, and a load was applied to the top of the lens at 100 mg increments for mouse lenses and at 250 mg increments for human lenses. The displacement in the lens axial diameter (in μm or mm) was measured using MATLAB software developed by Dr. Adrian Glasser, UK, and plotted against the load applied. The displacement at a specific load was used to determine differences in lens stiffness between the untreated control and aggrelyte-treated lenses.
Freshly obtained human lenses (42-68 years old, n=10-12) were incubated with or without Aggrelyte-2 or Aggrelyte-2C (1 mM) for a total of 72 h in phenol red-free MEM with a change in media containing freshly dissolved aggrelytes every 24 h. One lens from each donor pair was used as the control, and the other was treated with aggrelyte. After incubation, the lens stiffness was measured as described above. Axial strain was also calculated based on the following formula: […]

[2] = system: AcK in solubilized WI protein of human lenses; assay: AcK in solubilized human lens proteins (LC-MS/MS); format: biochemical; details: 500 μM, 24 hours; for AcK level: solubilized WI protein, human lenses (55-67 years)
Procedure: Water-insoluble proteins were prepared from aged human lenses (55-67 years) as described in Example 3, and incubated with 0 or 500 μM Aggrelyte-2 or Aggrelyte-2C for 24 hours as described in Example 3. Solubilized WI protein fractions (0.5 mg/mL) and water soluble (WS) protein fractions (3 mg/mL from human lenses) were sequentially digested with enzymes as previously described (Nandi et al., 2019, Biochemistry, 58(9):1260-1274). The enzyme-digested samples were analyzed for AcK by LC-MS/MS using the standard addition method as previously described (id.) The AcK levels were calculated based on the protein input in the enzymatic digestions.

human (60-62 years) lens = assay: Human lens transparency (separate study); details: data not shown
Description: The reduction in stiffness was similar at 400- and 500-mg loads (FIGS. 21C and 21D, respectively).

[3] = system: water-insoluble (WI) proteins from human lenses; assay: Solubilization of water-insoluble (WI) proteins from human lenses (BCA protein assay of supernatant); format: biochemical; details: 500 μM; for protein in the supernatant / solubilized protein, % of the initial WI protein / solubilized protein, % of the initial protein: ten human lenses (65 to 75 years)
Procedure: Human lenses (donor age: 55-75 years) were obtained from Saving Sight, Kansas City, MO, and Lions Eye Institute for Transplant & Research, Tampa, FL. The lenses were harvested within 36 hours postmortem, stored with (when used for culturing) or without minimum essential medium (MEM), and shipped to the inventors' laboratory on ice or frozen on dry ice. Lenses shipped on dry ice (used in the presently described and other solubility studies) were stored at −80° C. until use. Each frozen lens was thawed on ice and homogenized with 1.5 mL of PBS in a hand-held glass homogenizer. The homogenate was centrifuged at 20,000×g for 20 min at 4° C. The supernatant was discarded, and the pellet was suspended in 1 mL of homogenization buffer and centrifuged at 20,000×g for 20 min at 4° C. The resulting pellet was lyophilized and designated the water-insoluble (WI) fraction.
In the present example, the ability of aggrelytes to solubilize WI proteins from a human lens was investigated. Stock solutions (10 mM) of Aggrelyte-2 and Aggrelyte-2C were prepared in 50 mM phosphate buffer. The WI fraction (2 mg) was incubated in 50 mM sodium phosphate buffer (0.4 mL), pH 7.4, at 37° C. with aggrelyte at a final concentration of 0-2000 μM. The mixture was incubated at 37° C. with shaking for 24 or 48 hours after adding 0.002% sodium azide to prevent bacterial growth. After incubation, the samples were centrifuged at 20,000×g for 20 min at 4° C., and the supernatants were collected. Protein in the supernatant was measured using a BCA Protein Assay Kit from Thermo Scientific (Waltham, MA) using BSA as the standard.
WI fractions from ten aged human lenses (65 to 75 years) were prepared as in Example 3. The WI fractions (2 mg) were incubated in 50 mM sodium phosphate buffer (0.4 mL), pH 7.4, at 37° C. with 500 μM aggrelyte for 24 or 48 hours. Each sample was separately processed three times and analyzed (mean±S.D.).

| SMILES | AcK levels, cortical protein fraction (Western blot) (human lenses) | AcK levels, nuclear protein fraction (Western blot) (human lenses) | levels of βC vs Controls (β-crystallin (βC)) | amount of AcK-bearing proteins (Western blot densitometry) [1] | lens stiffness vs untreated control lenses (mouse lenses; 6-month-old mouse lenses) | axial strain vs controls (mouse lenses; mouse lenses) | displacement, % greater than that by Aggrelyte-2C (mouse lenses; mouse lenses, not significantly greater) [%] | AcK levels, fold increase compared to Aggrelyte-2C-treated samples ([2]; combined mean values) [fold] | AcK levels, fold increase compared to untreated controls ([2]; combined mean values) [fold] | AcK level [2] | lens transparency compared to vehicle-treated lenses (human (60-62 years) lens) | protein in the supernatant ([3]; 24-hour incubation) [µg/µL] | solubilized protein, % of the initial WI protein ([3]; 24-hour incubation) | solubilizing WI proteins, fold better than Control or Aggrelyte-2C ([3]; 24 and 48 hours, combined ten lenses) [fold] | protein in the supernatant ([3]; 48-hour incubation) [µg/µL] | solubilized protein, % of the initial protein ([3]; 48-hour incubation) | protein solubility, fold less than that of Aggrelyte-2 ([3]; 48 hours, human lens) [fold] |
| --- | --- | --- | --- | --- | --- | --- | --- | --- | --- | --- | --- | --- | --- | --- | --- | --- | --- |
| COC(=O)[C@H](CSC(C)=O)NC(C)=O [Aggrelyte-2, N,S-diacetyl-L-cysteine methyl ester] | significantly increases | significantly increases | slightly but not significantly higher | significantly (p<0.001) increased | significantly (p<0.05) reduced the stiffness | significantly (p<0.05) reduced the axial strain | 8.7 | 2.4 | 1.9 | 1.5-2.1 nmol/mg protein | did not reduce or otherwise change | 0.97 to 1.30 | 20-26% | ~1.4 | 0.96 to 1.48 | 19-30% | – |
| COC(=O)[C@H](CS)NC(C)=O [Aggrelyte-2C, N-acetyl-L-cysteine methyl ester] | not statistically different | not statistically different | no effect | did not increase the AcK levels | – | did not have a significant effect | – | – | – | 0.6-0.9 nmol/mg protein | did not reduce or otherwise change | 0.72 to 0.97 | 14-19% | – | 0.68 to 1.12 | 14-22% | ~1.4 |

Source: patent US12350250B2, “Aggrelytes for treating ocular conditions” (The Regents of the University of Colorado, a Body Corporate, priority 2022, dated 2025)
